Results as given in patent publication US20240115566A1, “METHODS OF TREATING DISORDERS ASSOCIATED WITH CASTOR” (ST. JUDE CHILDREN'S RESEARCH HOSPITAL, INC., priority 2020, published 2024).
Read-outs that look alike come from different tables or passages of the source. Values belong to the compound of their own block, whether it stands above or below them.

Legend:
[1] = tested on: C3A cells; assay: Total cellular CoA in C3A cells; assay type: cell-based, human; settings: 10 μM, 24 h
Method: Cell culture. Human C3A (HepG2/C3A) cells (#CRL-1074) were purchased from ATCC® and maintained in DMEM supplemented with 2 mM glutamine, 10% fetal bovine serum (Atlanta Biologicals), 50 U/ml penicillin and […] streptomycin. HEK293T cells (ATCC, #CRL-3216) were used for expression of human PCCA protein standard and were maintained in DMEM plus supplements as described above. Each cell line was confirmed to be mycoplasma-free. […] DMSO alone was added to control cultures. Culture medium was aspirated off the dish, cells were quickly washed with ice-cold phosphate-buffered saline that was quickly aspirated off the dish, and cells were quickly washed again with ice-cold water that was aspirated off to remove residual saline. Ice-cold water (1 ml) was added to the culture dish, cells were scraped into the cold water and the cell suspension was transferred to a glass test tube containing 400 μl of […] KOH and 1.5 ml water for analysis of total CoA content.

[2] = tested on: Pcca−/−PCCA(A138T)tg/0 (PA) mice; assay: TCA cycle intermediates in urine of PZ-3022-treated PA mice; assay type: in vivo, mouse; settings: PZ-3022 therapy
Method: FIGS. 6A-6B show TCA cycle intermediates in plasma and urine of treated PA mice. Urinary TCA cycle metabolites eliminated over 24 h were quantified by mass spectrometry and normalized to mouse body weight. […] Three male (blue) and three female (red) mice were used for each determination.
(§1) Animal experiments. […] Water was supplied ad libitum.
Metabolites in urine and plasma. Water was added to a 24-h urine sample to a final volume of 1 ml for each mouse. To 100 μl of urine or 20 μl of plasma, warfarin standard was added at a final concentration of 0.2 μM and the sample was incubated at −80° C. for 1 hour. The sample was centrifuged at 6000×g for 10 minutes to remove precipitants and the supernatant was analyzed by LC/MS/MS. […] Solvent A was 0.1% formic acid in water, and Solvent B was acetonitrile+0.1% formic acid. […] The MRMs for metabolites in either the positive or negative mode were taken from. The MRMs for the warfarin internal standard were: negative mode, 307.1/161.0; and positive mode, 309.1/163.0. […] The relative amount of metabolite was normalized to the amount of warfarin. To improve glycine detection, this metabolite was measured after derivatization with benzoyl chloride using the technology and MRMs described.

[3] = tested on: wild-type mice; assay: Effect of PZ-3022 chow on liver CoA, amino acids and TCA metabolites in wild-type mice; assay type: in vivo, mouse
Method: FIGS. 20A-20E show liver CoASH (20A), liver C2-CoA (20B), liver C3-CoA (20C), liver C3:C2-CoA ratio (20D), and plasma and urine amino acid levels (20E). Number of mice in each group are shown in parenthesis. Amino acids were measured by mass spectrometry using warfarin as an internal standard except for glycine, which was measured as its benzoyl derivative. […] Two male (blue) and three female (red) mice were used for each determination.
Urinary TCA cycle metabolites eliminated over 24 h were quantified by mass spectrometry and normalized to mouse body weight. […] Male (blue) and female (red) mice were used for each determination. Number of mice in each group are shown in parenthesis.
as §1

[4] = tested on: Pcca−/−PCCA(A138T)tg/0 (PA) mice
[5] = in vivo; settings: male, BALB/c, mouse, plasma; for bioavailability: oral
[6] = tested on: C57BL/6J mice; assay: Liver total CoA and drug exposure in C57BL/6J mice (gavage or chow)
[7] = tested on: Pcca−/−PCCA(A138T)tg/0 (PA) mice; assay: Short-term (3-day gavage) PZ-3022 treatment of PA mice: liver CoA pools and carnitines
[8] = Pharmacokinetic evaluation in plasma of male BALB/c mice
[9] = tested on: neuronal SynCre+ Pank1,2 dKO mice; assay: Survival, weight gain and physiology of neuronal SynCre+ Pank1,2 dKO mice on Compound 1 chow; assay type: in vivo, mouse; settings: 75 ppm chow
Excerpt: All procedures were reviewed and approved by the St. Jude Children's Research Hospital Institutional Animal Care and Use Committee. […] The mice were maintained at room temperature, humidity 50±10% and a 14/10-hour light/dark cycle. […] Water was supplied ad libitum. Mice were randomized into the treatment arms at weaning.
Neuron-specific deletion of Pank1 and Pank2 was confirmed by PCR genotyping of brain and liver postmortem as described by Sharma et al.

[10] = 24 h urine normalized to body weight
[11] = 75 ppm chow to day 70, male and female
[12] = 10 or 30 mg/kg plus 50 mg/kg pantothenate, 3 doses

AUC(0-t) ([5]; iv, 2 mg/kg): 2960 ng·h/mL | Cmax ([5]; iv, 2 mg/kg): 3290 ng/mL | bioavailability ([5]; 10 mg/kg): 100% | AUC(0-t) ([5]; po, 10 mg/kg): 16900 ng·h/mL | Plasma and liver PZ-3022 levels versus dose in chow ([6]; 7.5, 37.5 and 75 ppm in chow, 1 week): dose-dependent increase in drug | Circulating PZ-3022 at 24 h ([6]; gavage, plasma): not detected
Structure (SMILES): N#Cc1ccc(N2CCN(C(=O)Cc3ccc(C4CC4)cc3)CC2)nn1 [PZ-3022, 6-(4-(2-(4-cyclopropylphenyl)acetyl)piperazin-1-yl)pyridazine-3-carbonitrile]
Elevation of total cellular CoA [1]: just as effective at raising total CoA levels in cultured cells as PZ-2891 | Reduction in urinary methylmalonate ([2]; 24 h urine): 47% | Reduction of urinary malate ([2]; 24 h urine): 80% | Urine citrate level [2, 10]: significantly reduced | Urine malate level [2, 10]: significantly reduced | Urine methylmalonate level [2, 10]: significantly reduced | Urine α-ketoglutarate level [2, 10]: significantly reduced | Plasma and urine TCA cycle-related metabolite levels ([3]; treated vs untreated wild-type mice): no differences | Liver C3-CoA ([3]; wild-type mice on PZ-3022 chow): not altered | Liver CoASH ([3]; wild-type mice on PZ-3022 chow): increased as expected | Liver acetyl-CoA ([3]; wild-type mice on PZ-3022 chow): increased as expected | Plasma and urine amino acids ([3]; wild-type mice on PZ-3022 chow): not changed with the exception of histidine being lower in plasma and higher in urine | Liver CoASH ([4]; 75 ppm PZ-3022 + 1000 ppm pantothenate chow from day 21 to day 70, males and females): restored liver CoASH levels to wild-type | Hepatic C3-CoA ([4]; 75 ppm chow to day 70): significant drop | Liver C2-CoA ([4]; 75 ppm chow to day 70): restored to wild-type levels | Liver C2-carnitine ([4]; 75 ppm chow to day 70): did not exhibit significant increases | Liver carnitine ([4]; 75 ppm chow to day 70): did not exhibit significant increases | Plasma C3-carnitine ([4]; 75 ppm chow to day 70, female mice): reduced | Liver C3-carnitine [4, 11]: significantly decreased | Plasma C2-carnitine [4, 11]: significantly increased | Plasma carnitine [4, 11]: increase | Plasma C3-carnitine ([4]; 75 ppm chow to day 70, male mice): the same in the treated and untreated male mice | Heart total CoA ([4]; PZ-3022 chow until 70 days of age): increased | Reduction in C3-CoA in liver ([4]; PZ-3022 therapy): 50% | Elevation of hepatic total CoA ([6]; 10 mg/kg oral gavage every 24 h for three days, 4 h after last dose): slightly more potent in elevating CoA than PZ-2891 | Total liver CoA versus dose in chow ([6]; 7.5, 37.5 and 75 ppm in chow with 1000 ppm pantothenate, 1 week): dose response relationship | Hepatic CoA levels at 24 h ([6]; gavage): returned to the pre-dose level | Time at which elevation of liver CoA begins after administration ([6]; gavage, C57BL/6J male mice): 2 h | Time up to which elevation of liver CoA is maintained ([6]; gavage, C57BL/6J male mice): up to 8 h | Parent drug levels in plasma and liver ([6]; same oral dosage, 75 ppm chow for 4 weeks): higher levels of circulating (FIG. 16C) and liver (FIG. 16D) PZ-3022 compared to PZ-2891 | Liver total CoA ([7]; 10 and 30 mg/kg, 3 doses, fluorescent derivatization): significant, dose-dependent elevation | Liver C2-CoA [7, 12]: increased | Liver C3-CoA [7, 12]: decreased but was not eliminated | Liver CoASH ([7]; 10 or 30 mg/kg plus 50 mg/kg pantothenate, 3 doses at 24 h, 4 h after last dose): significantly elevated

Cmax ([5]; iv, 2 mg/kg): 2810 ng/mL | bioavailability ([5]; 10 mg/kg): 46% | AUCinf ([8]; i.v. 2 mg/kg): 611.5 ng·h/mL | AUClast ([8]; i.v. 2 mg/kg): 608.6 ng·h/mL | CL ([8]; i.v. 2 mg/kg): 54.5 mL/min/kg | T1/2 ([8]; i.v. 2 mg/kg): 18 min | Vss ([8]; i.v. 2 mg/kg): 0.9 L/kg | AUCinf ([8]; p.o. 10 mg/kg): 1424.0 ng·h/mL | AUClast ([8]; p.o. 10 mg/kg): 1397.8 ng·h/mL | C0/Cmax (Cmax) ([8]; p.o. 10 mg/kg): 1886.5 ng/mL | Tmax ([8]; p.o. 10 mg/kg, 30% Captisol, male BALB/c mice, plasma): 18 min
Structure (SMILES): CC(C)c1ccc(CC(=O)N2CCN(c3ccc(C#N)nn3)CC2)cc1 [PZ-2891]

Structure (SMILES): O=C(Cc1ccc(C2CC2)c(F)c1)N1CCN(c2ccc(Cl)nn2)CC1 [Compound 1]
Growth rate, lifespan and movement dysfunction [9]: improvement of growth rate, lifespan, and movement dysfunction | Weight gain, greater than untreated dKO ([9]; at the time of evaluation): 10%
